Experiments:
Assay type in all cases: in vivo, C57BL/6 mice
ATP5D = ATP5D content in brain tissue; conditions: brain tissue 24 hours after administration, sham = 1.00; tPA 10 mg/kg alone; T541 20 mg/kg + tPA 10 mg/kg
Protocol: After reperfused for 24 hours, mice were perfused by normal saline; Western blotting analysis was conducted to the penumbra field of infarcted right cerebral cortex. After perfused, mice brain tissue was taken out; cerebellum and prefrontal lobe were cut off; the brain tissue of right brain close to 1 cm of the central joint of left and right hemispheres along the sagittal view; infarcted penumbra field of the rest tissues was cut off along an 45° angle; the cerebral cortex of the penumbra field was peeled off and preserved at low temperature. Right cerebral cortex was taken and added 1×RIPA lysate and a Cocktail protease inhibitor (1:100, Cell Signaling Technology, US) for full pyrolysis and ultrasonic treatment, and then 17000 g were centrifuged for 30 minutes. Supernatant was taken and added 5×loading buffer by volume, boiled for 20 minutes in boiling water, and then preserved at −80° C. Excessive supernatant was taken out and quantified by a BCA protein quantification liquor (ThermoScientific, US) to measure absorbance value at 560 nm of ELIASA and to calculate the protein concentration according to a standard curve. […] The density of electrophoretic strips was analyzed by an image analysis software Quantityone. […]

cerebral hemorrhage = assay: Hemoglobin in right hemisphere tissue (cerebral hemorrhage); conditions: 24 h after administration, tPA 10 mg/kg alone, T541 20 mg/kg + tPA 10 mg/kg
Protocol: After reperfused for 24 hours, mice were perfused via heart by a PBS buffer precooled at 4° C. and separated brain via craniotomy; the brain was cut from front to back into 5 slices in a brain stereotaxic apparatus; bleeding condition was rapidly shoot by a stereoscopic microscope; then slices were stored at −80° C.; and hemoglobin was measured by a hemoglobin spectrophotometry cassette.

[1] = system: blood flow of cerebral cortex; assay: Cerebral blood flow by Laser Doppler Flowmetry
Protocol: Mice were anesthetized via intraperitoneal injection by pentobarbital sodium (2%, 45 mg/kg), and neck kin was sterilized. A median incision was cut on the neck, exposed and isolated to obtain arteria carotis communis; a waterproof cushion was used to isolate arteria carotis communis with the length of about 2.5-3 mm from surrounding tissues. The isolated arteria carotis communis was wrapped by a filter paper soaked by 10% FeCl3 for about 1 mm (width), and the filter paper was removed 3 minutes later, the outside of blood vessel was washed by 0.9% normal saline. The waterproof cushion was removed. The neck incision was sutured. The start of Fe3+ stimulation was defined as the beginning of ischemia, and those mice meeting the following conditions were selected into the group: the blood vessel was blocked at the maximum diameter of the neck thrombus 10 minutes after ischemia; the blood flow of the carotid artery distal end was less than 20% of the base value 15 minutes after ischemia; and the thrombus was stable 4.5 hours after ischemia (before reperfusion); the carotid artery vessel at 60% and more of the diameter was blocked by the maximum diameter of the thrombus.
Mice were treated by medicaments or normal saline according to random grouping results 4.5 hours after ischemia. Mice femoral vein was intubated, and left femoral vein was injected tPA (tissue plasminogen activator) or normal saline; right femoral vein was injected the traditional Chinese medicinal composition of the present invention or normal saline; 10% of the total dose was injected via an injection pump, and the rest 90% were continuously injected intravenously for 1 hour with the rate of 0.1 ml/h. Three proportion groups were selected to the traditional Chinese medicinal composition of the present invention respectively below:
A computer-linked Laser Doppler Flowmetry was used to measure the blood flow of cerebral cortex in the dominant region of bilateral middle cerebral arteries. Anesthetized mice were placed on a board in supine position; skin on the parietal bone of both sides was cut to fully expose the parietal bone; a computer-linked low-energy He—Ne laser probe was placed away 16-18 cm on the parietal bone to detect the blood flow of pia mater in the blood supply region of bilateral middle cerebral arteries of mice before ischemia (namely, a base value), 10 minutes after ischemia, 4.5 hours after ischemia (namely, before reperfusion), 1 hour after reperfusion, 2 hours after reperfusion and 24 hours after reperfusion. A cerebral blood flow analysis software LDPIwin 3.1 (PeriScan PIM3 System, PERIMED, Stockholm, Sweden) was used to calculate the blood flow of cerebral cortex in the same region dominated by bilateral MCA.

[2] = before administration, groups: tPA 10 mg/kg alone, T541 20 mg/kg, T141 12 mg/kg, T582 15 mg/kg each + tPA 10 mg/kg
[3] = iv, tPA 10 mg/kg alone, T541 20 mg/kg, T141 12 mg/kg, T582 15 mg/kg each + tPA 10 mg/kg

Question: With “tPA: tissue-type plasminogen activator (tPA) for thrombolysis” as the substance, how does the ATP5D (ATP5D) read?
Answer: 0.71 ± 0.05

Question: And the Hemoglobin (cerebral hemorrhage)?
Answer: 13.55 ± 3.72

Question: What about the “Cerebral blood flow, 10 minutes after FeCl3 simulation” value [1, 2] of the same substance?
Answer: 55.20 ± 5.69

Question: What about the “Cerebral blood flow, Before FeCl3 simulation” value [1, 2] of the same substance?
Answer: 100.25 ± 1.19

Question: And the “recovery of brain blood flow (in words)” value ([1]; high-dose T541 or tPA simply given, T141, T582 with tPA)?
Answer: no obvious recovery of the brain blood flow

Question: And the “Cerebral blood flow, 5.5 hours after FeCl3 simulation (1 hour after administration)” value [1, 3]?
Answer: 47.56 ± 6.13

Question: And the “Cerebral blood flow, 6.5 hours after FeCl3 simulation (2 hours after administration)” value [1, 3]?
Answer: 41.46 ± 4.49

Question: What about the “Cerebral blood flow, 28.5 hours after FeCl3 simulation (24 hours after administration)” value [1, 3] of the same substance?
Answer: 42.40 ± 4.61

Question: And the “Cerebral blood flow, 4.5 hours after FeCl3 simulation” value ([1]; start of administration, groups: tPA 10 mg/kg alone, T541 20 mg/kg, T141 12 mg/kg, T582 15 mg/kg each + tPA 10 mg/kg)?
Answer: 49.58 ± 7.44

— US20210038668A1, “TRADITIONAL CHINESE MEDICINE COMPOSITION FOR PREVENTING AND/OR TREATING ISCHEMIC REPERFUSION INJURY” (TASLY PHARMACEUTICAL GROUP CO., LTD., priority 2018, published 2021)
